Assay results as given in patent US5114920A, “BU-3292T antibiotics” (priority 1988, dated 1992).
In brackets after ≈: the same amount, converted by molar mass. Starred links: 1 amine or outer side, 2 acyl side, 3 side chain; linkers in the order of their positions; H or OH if unused. Positions of bridges follow the written chain, without caps; N, C: chain ends. Non-standard residues stand in square brackets, D forms with d. Residues, ends and D or L forms follow the SMILES beside them. *: point of attachment. X2 = CC1CCC(C(=O)[*:2])N1[*:1]; NMeV = CN[CH](C(=O)O)C(C)C; X1 = Cc1ccc(C(=O)*)c(N)c1O; Sar = CNCC(=O)O

Legend:
[1] = Body weight change in P388-bearing mice; conditions: QD × 3, ip
Procedure: (§1) BU-3292T components A and B were tested for in vitro cytotoxicity against murine and human tumor cells and for in vivo antitumor activity in mice. Actinomycin D was used as a reference compound in both in vitro and in vivo experiments. B16-F10 (murine melanoma) and Moser (human colorectal carcinoma) cells were grown to the logarithmic phase in enriched Eagle minimum essential medium (MEM) supplemented with fetal calf serum (FCS, 10%) and kanamycin (60 mcg/ml), harvested and inoculated into wells of a 96-well microtiter plate with test materials at the concentrations of 3.0×10^4 and 6.0×10^4 cells/ml, respectively. They were incubated at 37° C. in humidified atmosphere of 5% CO2 and 95% air for 72 hours. The cytotoxic activity was determined colorimetrically at 540 nm after staining viable cells with neutral red. […] Inhibitory effects of BU-3292T component A on macromolecule (DNA, RNA and protein) synthesis were determined in vitro. Cultured L1210 murine leukemia cells (5×10^5 cells/ml) were incubated with test materials at 37° C. for 15 minutes and then further incubated for 60 minutes after the addition of labelled precursor, ^3 H-thymidine, ^14 C-uridine or ^3 H-leucine, into the cultured mixtures. After washing with chilled 5% trichloroacetic acid solution, the radioactivity incorporated into the acid-insoluble fraction of the tumor cells was determined in a liquid scintillation counter. […] In vivo antitumor activities of BU-3292T components A and B were tested in tumor-bearing female CDF mice. After the intraperitoneal implantation of diluted ascitic fluid with 1.0 ×10^6 lymphocytic leukemia P388 cells into the mice, test compounds were administered intraperitoneally once a day on days 1, 2 and 3 (QD×3).

[2] = system: Moser (human colorectal carcinoma) cells; test: In vitro cytotoxicity, neutral red staining; format: cell-based; conditions: 72 hours
Procedure: as §1

[3] = system: B16-F10 (murine melanoma) cells; test: In vitro cytotoxicity, neutral red staining; format: cell-based
Procedure: as §1

[4] = system: Protein synthesis in L1210 leukemia cells; test: Inhibition of macromolecule synthesis, 3H-leucine incorporation; format: cell-based, murine
Procedure: as §1

[5] = system: anaerobic gram-negative bacteria and fungi; test: Antimicrobial activity, agar dilution, summary in words; format: cell-based; conditions: summary of Table 6
Procedure: (§2) The antimicrobial activity of BU-3292T A and B was determined against aerobic and anaerobic bacteria and fungi by a serial two-fold agar dilution method. BU-3292T A and B are active against aerobic gram-positive bacteria, and weakly active against anaerobic gram-negative bacteria and fungi.

gram-negative bacteria = test: as above; format: cell-based; conditions: summary of Table 6
Procedure: as §2

[6] = system: aerobic gram-positive bacteria; test: as above; format: cell-based; conditions: summary of Table 6
Procedure: as §2

[7] = system: DNA synthesis in L1210 leukemia cells; test: Inhibition of macromolecule synthesis, 3H-thymidine incorporation; format: cell-based, murine
Procedure: BU-3292T components A and B were tested for in vitro cytotoxicity against murine and human tumor cells and for in vivo antitumor activity in mice. Actinomycin D was used as a reference compound in both in vitro and in vivo experiments. B16-F10 (murine melanoma) and Moser (human colorectal carcinoma) cells were grown to the logarithmic phase in enriched Eagle minimum essential medium (MEM) supplemented with fetal calf serum (FCS, 10%) and kanamycin (60 mcg/ml), harvested and inoculated into wells of a 96-well microtiter plate with test materials at the concentrations of 3.0×10^4 and 6.0×10^4 cells/ml, respectively. They were incubated at 37° C. in humidified atmosphere of 5% CO2 and 95% air for 72 hours. The cytotoxic activity was determined colorimetrically at 540 nm after staining viable cells with neutral red. […] Inhibitory effects of BU-3292T component A on macromolecule (DNA, RNA and protein) synthesis were determined in vitro. […] After washing with chilled 5% trichloroacetic acid solution, the radioactivity incorporated into the acid-insoluble fraction of the tumor cells was determined in a liquid scintillation counter. […]

[8] = system: Clostridium perfringens A9635; format: cell-based; conditions: GAM agar
Solubility = format: physicochemical
Excerpt: BU-3292T A is isolated as a white amorphous powder, while BU-3292T B is an orange-red powder. […] The compounds give positive responses to iodine and Rydone-Smith reagents, but negative responses to Sakaguchi, ferric chloride, ninhydrin and anthrone reagents. […] The IR spectra of BU-3292T A and B are illustrated in FIGS. 1 and 2, respectively.

[9] = system: lymphocytic leukemia P388; test: Antitumor activity against P388 leukemia (ip); format: in vivo, mice; conditions: for MST (Median survival time) / T/C: QD × 3, ip
Procedure: as §1

[10] = system: Klebsiella pneumoniae D11; test: Antimicrobial activity, serial two-fold agar dilution method; format: cell-based; conditions: Nutrient agar
Procedure: as §2

[11] = system: Candida albicans IAM 4888; test: as above; format: cell-based; conditions: Sabouraud dextrose agar
Procedure: as §2

[12] = system: Staphylococcus epidermidis D153; test: as above; format: cell-based; conditions: Nutrient agar
Procedure: as §2

[13] = system: Clostridium difficile A21675; test: as above; format: cell-based; conditions: GAM agar
Procedure: as §2

Proteus mirabilis A9554 = test: as above; format: cell-based; conditions: Nutrient agar
Procedure: as §2

[14] = system: Streptococcus pyogenes A20201; test: as above; format: cell-based; conditions: Nutrient agar
Procedure: as §2

[15] = system: Bacteroides fragilis A22693; test: as above; format: cell-based; conditions: GAM agar
Procedure: as §2

Proteus vulgalis A9436 = test: as above; format: cell-based; conditions: Nutrient agar
Procedure: as §2

[16] = system: Propionibacterium acnes A21933; test: as above; format: cell-based; conditions: GAM agar
Procedure: as §2

Micrococcus luteus 1001 = test: as above; format: cell-based; conditions: Nutrient agar
Procedure: as §2

[17] = system: Aspergillus fumigatus IAM 2530; test: as above; format: cell-based; conditions: Sabouraud dextrose agar
Procedure: as §2

Escherichia coli NIHJ = test: as above; format: cell-based; conditions: Nutrient agar
Procedure: as §2

Mucor spinosus IFO 5317 = test: as above; format: cell-based
Procedure: as §2

[18] = system: Bacillus subtilis PCI-219; test: as above; format: cell-based; conditions: Nutrient agar
Procedure: as §2

[19] = system: Propionibacterium anaerobius A21905; test: as above; format: cell-based; conditions: GAM agar
Procedure: as §2

[20] = system: Cryptococcus neoformans IAM 4519; test: as above; format: cell-based; conditions: Sabouraud dextrose agar
Procedure: as §2

[21] = system: Pseudomonas aeruginosa A9930; test: as above; format: cell-based; conditions: Nutrient agar
Procedure: as §2

[22] = system: Staphylococcus aureus smith; test: as above; format: cell-based; conditions: Nutrient agar
Procedure: as §2

[23] = system: Trichophyton mentagrophytes D155; test: as above; format: cell-based; conditions: Sabouraud dextrose agar
Procedure: as §2

[24] = system: Streptococcus faecalis A9612; test: as above; format: cell-based; conditions: Nutrient agar
Procedure: as §2

[25] = system: Staphylococcus aureus 209P; test: as above; format: cell-based; conditions: Nutrient agar
Procedure: as §2

[26] = system: Fusarium moniliforme A2284; test: as above; format: cell-based; conditions: Sabouraud dextrose agar
Procedure: as §2

[27] = system: RNA synthesis in L1210 leukemia cells; test: Inhibition of macromolecule synthesis, 14C-uridine incorporation; format: cell-based, murine
Procedure: as §1

## Cc1ccc(C(=O)NC2C(=O)NC(C(C)C)C(=O)N3C(C)CCC3C(=O)N(C)CC(=O)N(C)C(C(C)C)C(=O)OC2C)c(N)c1O (stereo not shown) [BU-3292T A] (X1-TV[X2][Sar][NMeV]; ester 1-C; configuration not given here)
[1]; 0.03 mg/kg/day
  Body weight change on day 4: +1.3 g
[1]; 0.1 mg/kg/day
  Body weight change on day 4: +1.3 g
[1]; 0.3 mg/kg/day
  Body weight change on day 4: +1.3 g
[1]; 1 mg/kg/day
  Body weight change on day 4: +0.5 g
[1]; 3 mg/kg/day
  Body weight change on day 4: +0.3 g
[1]; 10 mg/kg/day
  Body weight change on day 4: -3.0 g
[2]
  IC50: 0.09 µg/mL (≈ 0.14 µM)
[3]; B16-F10, 72 hours
  IC50: 7 ng/mL (≈ 0.0109 µM)
[3]; cytotoxic activity, B16-F10 versus Moser
  times stronger against B16-F10 cells than against Moser cells: approximately 10 times
[4]; L1210 cells, at 100 mcg/ml, the highest concentration tested
  inhibitory effect on protein synthesis: no inhibitory effect
[4]; L1210 leukemia cells, 3H-leucine
  IC50 Protein: > 100 µg/mL
[5]
  activity against anaerobic gram-negative bacteria and fungi: weakly active
gram-negative bacteria
  activity against gram-negative bacteria: inactive
[6]
  activity against aerobic gram-positive bacteria: active
[7]
  IC50 DNA: 80 µg/mL (≈ 124 µM)
[8]
  MIC: 100 µg/mL (≈ 155 µM)
Solubility; dimethyl sulfoxide, dimethylformamide, methanol, ethyl acetate, chloroform
  solubility in dimethyl sulfoxide, dimethylformamide, methanol, ethyl acetate and chloroform: readily soluble
Solubility; water and other organic solvents
  solubility in water and other organic solvents: insoluble
[9]; 0.03 mg/kg/day
  MST (Median survival time): 11.0 days
  T/C: 110%
[9]; 0.1 mg/kg/day
  MST (Median survival time): 11.0 days
  T/C: 110%
[9]; 0.3 mg/kg/day
  MST (Median survival time): 12.0 days
  T/C: 120%
[9]; 1 mg/kg/day
  MST (Median survival time): 13.0 days
  T/C: 130%
[9]; 3 mg/kg/day
  MST (Median survival time): 14.0 days
  T/C: 140%
[9]; 10 mg/kg/day
  MST (Median survival time): 16.0 days
  T/C: 160%
[9]; 30 mg/kg/day
  MST (Median survival time): Tox
  T/C: Tox
[9]; anti-P388 leukemic activity, QD×3, ip
  maximum T/C value: 160%
[10]
  MIC: > 100 µg/mL
[11]
  MIC: > 100 µg/mL
[12]
  MIC: 1.6 µg/mL (≈ 2.48 µM)
[13]
  MIC: > 100 µg/mL
Proteus mirabilis A9554
  MIC: > 100 µg/mL
[14]
  MIC: 1.6 µg/mL (≈ 2.48 µM)
[15]
  MIC: > 100 µg/mL
Proteus vulgalis A9436
  MIC: > 100 µg/mL
[16]
  MIC: 100 µg/mL (≈ 155 µM)
Micrococcus luteus 1001
  MIC: 0.4 µg/mL (≈ 0.62 µM)
[17]
  MIC: > 100 µg/mL
Escherichia coli NIHJ
  MIC: > 100 µg/mL
Mucor spinosus IFO 5317; Mucor spinosus IFO 5317, Sabouraud dextrose agar
  MIC: 12.5 µg/mL (≈ 19.4 µM)
Mucor spinosus IFO 5317; in vitro against Mucor spinosus IF05317
  MIC: 12.5 µg/mL (≈ 19.4 µM)
[18]
  MIC: 0.4 µg/mL (≈ 0.62 µM)
[19]
  MIC: 100 µg/mL (≈ 155 µM)
[20]
  MIC: 100 µg/mL (≈ 155 µM)
[21]
  MIC: > 100 µg/mL
[22]
  MIC: 1.6 µg/mL (≈ 2.48 µM)
[23]
  MIC: > 100 µg/mL
[24]
  MIC: 0.8 µg/mL (≈ 1.24 µM)
[25]
  MIC: 1.6 µg/mL (≈ 2.48 µM)
[26]
  MIC: > 100 µg/mL
[27]; L1210 cells, RNA versus DNA synthesis
  inhibited RNA synthesis times more than DNA synthesis: approximately 300 times
[27]; L1210 leukemia cells, 14C-uridine
  IC50 RNA: 0.23 µg/mL (≈ 0.357 µM)
